In US20250122192A1, “5-PYRIMIDINECARBOXAMIDE DERIVATIVES AND METHODS OF USING THE SAME” (Rgenta Therapeutics, Inc., priority 2021, published 2025):
Counter-ions that a name gives are not always drawn.

System: PMS1
Test: Mini-gene reporter assay-PMS1
Assay type: cell-based
Conditions: Homo sapiens, HEK293, PMS1 mini-gene firefly luciferase reporter transiently transfected into HEK293 cells; read-out: PMS1 IC50
Excerpt: Biological Activity of the Compounds of the Present Disclosure Mini-gene reporter assay-PMS1
Mini-gene reporter constructs for each target site can be constructed by first PCR amplifying the region-of-interest including the sequence of the alternatively skipped, sequences of the immediate upstream and downstream introns, and sequences of the immediate upstream and downstream exons. Then the 3′end of the amplified sequence can be ligated to a firefly luciferase reporter gene and cloned into the pcDNA3.1 vector backbone. The final reporter construct can be transiently transfected into HEK293 cells using Lipofectamine 3000 transfection reagents. Compounds that can induce the inclusion of the skipped exon in the reporter construct would increase the reporter firefly luciferase activity.
Test compounds may be diluted in duplicates and dispensed into an assay plate. Transient mini-gene reporter cell line stock is resuspended and dispensed into the assay plate. Assay plates are then centrifuged and incubated. A luciferase reagent (e.g. ONE-Glo firefly luciferase reagent from Promega®) may be added to the assay plate and the luminescence (RLU) signals recorded. PMS1 EC50 values may be determined by curve fitting in Levenberg-Marquardt algorithm.

Q: For `COc1nc(N(C)C2CCNCC2)ncc1C(=O)Nc1cn2cc(C)nc2cn1` [Compound 257, 4-methoxy-2-(methyl(piperidin-4-yl)amino)-N-(2-methylimidazo[1,2-a]pyrazin-6-yl)pyrimidine-5-carboxamide formate], which IC50 is on record?
A: 500 to 1000 nM

Q: For `CCOc1nc(N2CCNC(C)C2C)ncc1C(=O)Nc1cn2cc(C)nc2c(C)n1` (centres unmarked) [Compound 35], which IC50 is on record?
A: > 3000 nM

Q: How did the IC50 turn out when `CCOc1nc(N2CCC3(CC2)COCCN3)ncc1C(=O)Nc1cn2cc(C)nc2c(C)n1` [Compound 94] was run?
A: > 3000 nM

Q: With `CCOc1nc(N2CCC(CNC)C2)ncc1C(=O)Nc1cc(F)c2nc(C)cn2c1` (centres unmarked) [Compound 211] as the compound, how does the IC50 read?
A: < 500 nM

Q: How did the IC50 turn out when `CCOc1nc(N(C)C2CCNC2)ncc1C(=O)Nc1cn2cc(C)nc2c(C)n1` (centres unmarked) [Compound 81] was run?
A: 1000 to 3000 nM

Q: `CCOc1nc(N2CC(C3CCCCCN3)C2)ncc1C(=O)Nc1cn2cc(C)nc2c(C)n1` (centres unmarked) [Compound 59] was tested. Which IC50 did it give?
A: < 500 nM

Q: How did the IC50 turn out when `CCOc1nc(N2CC[C@@H]3NCC[C@@H]3C2)ncc1C(=O)Nc1cc(F)c2nc(C)cn2c1` (racemic) [Compound 199] was run?
A: < 500 nM

Q: Which IC50 does the source give for `CCOc1nc(N2CCN(C3CCNCC3)CC2)ncc1C(=O)Nc1cc(F)c2nc(C)cn2c1` [Compound 137] here?
A: > 3000 nM

Q: `CCOc1nc(N2CC3CCC2C2CNCC32)ncc1C(=O)Nc1cc(F)c2nc(C)cn2c1` (centres unmarked) [Compound 128] was tested. Which IC50 did it give?
A: < 500 nM

Q: With `CCOc1nc(N2CC3(CNC3)C2)ncc1C(=O)Nc1cc(F)c2nc(C)cn2c1` [Compound 206] as the compound, how does the IC50 read?
A: < 500 nM

Q: `CCOc1nc(N2CCCC3CNCCC32)ncc1C(=O)Nc1cn2cc(C)nc2c(C)n1` (centres unmarked) [Compound 49] was tested. Which IC50 did it give?
A: < 500 nM

Q: `CCOc1nc(N2CC(C)NCC2C)ncc1C(=O)Nc1cc(F)c2nc(C)cn2c1` (centres unmarked) [Compound 230] was tested. Which IC50 did it give?
A: < 500 nM

Q: With `CCOc1nc(N2CC3CNC(C3)C2)ncc1C(=O)Nc1cc(F)c2nc(C)cn2c1` (centres unmarked) [Compound 134] as the compound, how does the IC50 read?
A: 1000 to 3000 nM

Q: How did the IC50 turn out when `CCOc1nc(N2CCC(C3CCCN3)CC2)ncc1C(=O)Nc1cc(F)c2nc(C)cn2c1` (centres unmarked) [Compound 203] was run?
A: < 500 nM

Q: For `CCOc1nc(N2CCC3(CCNC3)C2)ncc1C(=O)Nc1cn2cc(C)nc2c(C)n1` (centres unmarked) [Compound 80], which IC50 is on record?
A: < 500 nM

Q: With `CCOc1nc(N2CC(C)CNC(C)C2)ncc1C(=O)Nc1cc(F)c2nc(C)cn2c1` (centres unmarked) [Compound 131] as the compound, how does the IC50 read?
A: 500 to 1000 nM

Q: `CCOc1nc(N2CCCC(CNC)C2)ncc1C(=O)Nc1cc(F)c2nc(C)cn2c1` (centres unmarked) [Compound 228] was tested. Which IC50 did it give?
A: 500 to 1000 nM

Q: For `CCOc1nc(N2CCNCC2)ncc1C(=O)Nc1cc(OC)c2nn(C)cc2c1` [Compound 273, 4-ethoxy-N-(7-methoxy-2-methyl-2H-indazol-5-yl)-2-(piperazin-1-yl)pyrimidine-5-carboxamide formate], which IC50 is on record?
A: 1000 to 3000 nM

Q: `CCOc1nc(N2CCC3CCCC(C2)N3)ncc1C(=O)Nc1cc(F)c2nc(C)cn2c1` (centres unmarked) [Compound 126] was tested. Which IC50 did it give?
A: 1000 to 3000 nM

Q: With `CCOc1nc(N2CCCNCC2)ncc1C(=O)Nc1cn2cc(C)nc2c(C)n1` [Compound 103] as the compound, how does the IC50 read?
A: 1000 to 3000 nM

Q: Which IC50 does the source give for `CCOc1nc(N2CCCC(C3CCCN3)C2)ncc1C(=O)Nc1cc(F)c2nc(C)cn2c1` (centres unmarked) [Compound 180] here?
A: < 500 nM

Q: Which IC50 does the source give for `CCN(c1ncc(C(=O)Nc2cc(F)c3nn(C)cc3c2)c(OC)n1)C1CCNCC1` [Compound 284, 2-(ethyl(piperidin-4-yl)amino)-N-(7-fluoro-2-methyl-2H-indazol-5-yl)-4-methoxypyrimidine-5-carboxamide formate] here?
A: < 500 nM

Q: `CC(C)COc1nc(N2CCNCC2)ncc1C(=O)Nc1cc(F)c2nn(C)cc2c1` [Compound 306, N-(7-fluoro-2-methyl-2H-indazol-5-yl)-4-isobutoxy-2-(piperazin-1-yl)pyrimidine-5-carboxamide formate] was tested. Which IC50 did it give?
A: 1000 to 3000 nM

Q: `CCOc1nc(N2CCNC(CC)C2)ncc1C(=O)Nc1cn2cc(C)nc2c(C)n1` (centres unmarked) [Compound 63] was tested. Which IC50 did it give?
A: 500 to 1000 nM

Q: For `CCOc1nc(N2CC[C@@H](NC)C2)ncc1C(=O)Nc1cc(OC)c2nn(C)cc2c1` [Compound 295, (R)-4-ethoxy-N-(7-methoxy-2-methyl-2H-indazol-5-yl)-2-(3-(methylamino)pyrrolidin-1-yl)pyrimidine-5-carboxamide 4-methylbenzenesulfonate], which IC50 is on record?
A: 500 to 1000 nM

Q: With `CCOc1nc(N2CC3(CCNCC3)CC2C)ncc1C(=O)Nc1cn2cc(C)nc2c(C)n1` (centres unmarked) [Compound 68] as the compound, how does the IC50 read?
A: > 3000 nM

Q: For `COCc1nc(N(C)CC2CNCCO2)ncc1C(=O)Nc1cc(F)c2nc(C)cn2c1` (centres unmarked) [Compound 189], which IC50 is on record?
A: > 3000 nM

Q: How did the IC50 turn out when `CCNC1CN(c2ncc(C(=O)Nc3cn4cc(C)nc4c(C)n3)c(OCC)n2)C1` [Compound 100] was run?
A: > 3000 nM

Q: How did the IC50 turn out when `CCOc1nc(N2CC[C@@H](N(C)C)C2)ncc1C(=O)Nc1cc(F)c2nc(C)cn2c1` [Compound 290, (R)-2-(3-(dimethylamino)pyrrolidin-1-yl)-4-ethoxy-N-(8-fluoro-2-methylimidazo[1,2-a]pyridin-6-yl)pyrimidine-5-carboxamide 4-methylbenzenesulfonate] was run?
A: 1000 to 3000 nM

Q: `CCOc1nc(N2CC34CCCCC3(CNC4)C2)ncc1C(=O)Nc1cc(F)c2nc(C)cn2c1` (centres unmarked) [Compound 166] was tested. Which IC50 did it give?
A: 1000 to 3000 nM

Q: How did the IC50 turn out when `CCOc1nc(N2CC3(CC(NC)CO3)C2)ncc1C(=O)Nc1cn2cc(C)nc2c(C)n1` (centres unmarked) [Compound 33] was run?
A: > 3000 nM

Q: `CCOc1nc(N2CCCC(C3CCCNC3)C2)ncc1C(=O)Nc1cc(F)c2nc(C)cn2c1` (centres unmarked) [Compound 184] was tested. Which IC50 did it give?
A: 500 to 1000 nM

Q: How did the IC50 turn out when `CCOc1nc(N2C3CCC2CC(NC)C3)ncc1C(=O)Nc1cc(F)c2nc(C)cn2c1` (centres unmarked) [Compound 157] was run?
A: < 500 nM

Q: With `CCOc1nc(N2CC[C@H]3CN[C@H]3C2)ncc1C(=O)Nc1cc(F)c2nc(C)cn2c1` (racemic) [Compound 169] as the compound, how does the IC50 read?
A: 500 to 1000 nM

Q: How did the IC50 turn out when `CCOc1nc(N2CCNC3(CC3)C2)ncc1C(=O)Nc1cc(F)c2nc(C)cn2c1` [Compound 296, 4-ethoxy-N-(8-fluoro-2-methylimidazo[1,2-a]pyridin-6-yl)-2-(4,7-diazaspiro[2.5]octan-7-yl)pyrimidine-5-carboxamide 2,2,2-trifluoroacetate] was run?
A: > 3000 nM

Q: For `CCOc1nc(N2CCN[C@@H](C)C2)ncc1C(=O)Nc1cc(F)c2nn(C)cc2c1` [Compound 279, (S)-4-ethoxy-N-(7-fluoro-2-methyl-2H-indazol-5-yl)-2-(3-methylpiperazin-1-yl)pyrimidine-5-carboxamide formate], which IC50 is on record?
A: < 500 nM

Q: For `CCOc1nc(N2CCC(CNC)CC2)ncc1C(=O)Nc1cc(F)c2nc(C)cn2c1` [Compound 216], which IC50 is on record?
A: < 500 nM

Q: For `CCOc1nc(N2CCNCCC2C)ncc1C(=O)Nc1cn2cc(C)nc2c(C)n1` (centres unmarked) [Compound 40], which IC50 is on record?
A: 1000 to 3000 nM

Q: How did the IC50 turn out when `CCNC1CCN(c2ncc(C(=O)Nc3cn4cc(C)nc4c(C)n3)c(OCC)n2)C1` (centres unmarked) [Compound 70] was run?
A: < 500 nM

Q: For `CCNC1CN(c2ncc(C(=O)Nc3cc(F)c4nc(C)cn4c3)c(OCC)n2)C1` [Compound 202], which IC50 is on record?
A: 500 to 1000 nM

Q: Which IC50 does the source give for `CCOc1nc(N2CCNC(C)C2C)ncc1C(=O)Nc1cc(F)c2nc(C)cn2c1` (centres unmarked) [Compound 213] here?
A: < 500 nM

Q: `CCOc1nc(N(CC)C2CCNCC2)ncc1C(=O)Nc1cn2cc(C)nc2cn1` [Compound 267, 4-ethoxy-2-(ethyl(piperidin-4-yl)amino)-N-(2-methylimidazo[1,2-a]pyrazin-6-yl)pyrimidine-5-carboxamide formic acid] was tested. Which IC50 did it give?
A: 500 to 1000 nM

Q: With `CCOc1nc(N2CCC3CCNCC3C2)ncc1C(=O)Nc1cc(F)c2nc(C)cn2c1` (centres unmarked) [Compound 135] as the compound, how does the IC50 read?
A: 500 to 1000 nM

Q: Which IC50 does the source give for `CCOc1nc(N(C)CC2CCCNC2)ncc1C(=O)Nc1cc(F)c2nc(C)cn2c1` (centres unmarked) [Compound 217] here?
A: 1000 to 3000 nM

Q: Which IC50 does the source give for `CCOc1nc(N2CC3CCNCC32)ncc1C(=O)Nc1cn2cc(C)nc2c(C)n1` (centres unmarked) [Compound 48] here?
A: > 3000 nM

Q: For `CCOc1nc(N2CCNC(C)C2)ncc1C(=O)Nc1cn2cc(C)nc2c(C)n1` (centres unmarked) [Compound 102], which IC50 is on record?
A: 500 to 1000 nM

Q: With `CCOc1nc(N2C[C@H]3CNC[C@H]3C2)ncc1C(=O)Nc1cn2cc(C)nc2c(C)n1` [Compound 84] as the compound, how does the IC50 read?
A: < 500 nM

Q: Which IC50 does the source give for `CCOc1nc(N2CCNCC(CO)C2)ncc1C(=O)Nc1cc(F)c2nc(C)cn2c1` (centres unmarked) [Compound 109] here?
A: 1000 to 3000 nM

Q: With `CCOc1nc(N2CC3=C(CNC3)C2)ncc1C(=O)Nc1cc(F)c2nc(C)cn2c1` [Compound 114] as the compound, how does the IC50 read?
A: < 500 nM

Q: `CCOc1nc(N2CCC(NC)CC2)ncc1C(=O)Nc1cn2cc(C)nc2c(C)n1` [Compound 39] was tested. Which IC50 did it give?
A: < 500 nM

Same assay, conditions: Homo sapiens, HEK293, read-out: PMS1% Effect at 5 μM

Q: With `CCOc1nc(N2CCNCC2)ncc1C(=O)Nc1cn2cc(C)nc2cc1F` [Compound 308, 4-ethoxy-N-(7-fluoro-2-methylimidazo[1,2-a]pyridin-6-yl)-2-(piperazin-1-yl)pyrimidine-5-carboxamide formate] as the compound, how does the activation at 5 µM read?
A: > 75%

Same assay, conditions: Homo sapiens; at 5 μM; PMS1 mini-gene firefly luciferase reporter in HEK293 cells; read-out: PMS1% Effect at 5 μM

Q: `CCOc1nc(N2CCNCC2C(C)C)ncc1C(=O)Nc1cc(F)c2nc(C)cn2c1` (centres unmarked) [Compound 227] was tested. Which activation at 5 µM did it give?
A: < 50%

Q: `CCOc1nc(N2CCN[C@@H](C)C2)ncc1C(=O)Nc1cn2cc(C)nc2c(C)n1` [Compound 19, N-{2,8-dimethylimidazo[1,2-a]pyrazin-6-yl}-4-ethoxy-2-[(3S)-3-methylpiperazin-1-yl]pyrimidine-5-carboxamide] was tested. Which activation at 5 µM did it give?
A: 50 to 75%

Q: `CCOc1nc(N2CC3(CCN3)C2)ncc1C(=O)Nc1cn2cc(C)nc2c(C)n1` [Compound 24] was tested. Which activation at 5 µM did it give?
A: 50 to 75%

Q: Which activation at 5 µM does the source give for `CCOc1nc(N2CCCC(OC3CNC3)C2)ncc1C(=O)Nc1cc(F)c2nc(C)cn2c1` (centres unmarked) [Compound 153] here?
A: 50 to 75%

Same assay, conditions: PMS1 mini-gene firefly luciferase reporter transiently transfected into HEK293 cells; hydrochloride; read-out: PMS1 IC50

Q: `CCOc1nc(N2C[C@@H](C)N[C@@H](C)C2)ncc1C(=O)Nc1cc(F)c2nc(C)cn2c1` [Compound 4, 2-[(3R,5S)-3,5-dimethylpiperazin-1-yl]-4-ethoxy-N-{8-fluoro-2-methylimidazo[1,2-a]pyridin-6-yl}pyrimidine-5-carboxamide hydrochloride] was tested. Which IC50 did it give?
A: 500 to 1000 nM
